Reference: patent US8466107B2, “Fibrin-binding peptides and conjugates thereof” (Bracco Imaging SpA, priority 2006, dated 2013)

Test system: neuroblastoma (Neuro-2a) tumor
Experiment: In vivo MRI test of fibrin imaging in neuroblastoma tumor mouse model
Conditions: mice with neuroblastoma tumor; 25 μmol/kg iv.; T1 weighted MRI at 2T, 4 h post injection
Description: Three groups of 5 mice each, inoculated with 2·10^6 neuroblastoma cells with PBS, were formed and tested as follows: • Group a: Reference compound 2, • Group b: Chelate Complex 1 • Group c: ProHance® (see Protocol)
At day-10 post tumor cells inoculation, at least 4 mice per group with similar tumor size (5-10 mm in diameter) were selected for the in vivo MRI tests. After pre-contrast MRI acquisition (T1 and T2 high resolution 2D spin-echo and 3D gradient echo images), the test compounds were administered (25 μmol/kg iv.) and MRI was performed at 4 h and 24 h post injection. Maximum signal intensity was measured in the entire tumor area and in each post contrast image covering the whole tumor and the signal was compared to the pre-contrast images. At the end of MRI exams, all animals were sacrificed and the tumor, blood, liver, kidneys and femoral bone were removed and prepared for Gd assay by ICP-AES. […]
The mean signal intensity was measured within a region of interest (ROI) including the entire tumor, drawn by an operator on each MR image using dedicated software (MR Research Systems Ltd, Surrey UK). Signal intensity enhancement (Enh %) was determined as: Enh%=100*(SIx(t)−SI0)/SI0 […]

Q: How did the tumor signal enhancement turn out when `CC(O)CN1CCN(CC(=O)[O-])CCN(CC(=O)[O-])CCN(CC(=O)[O-])CC1.[Gd+3]` (stereo not shown) [ProHance®, reference compound] was run?
A: no signal enhancement was observed inside the tumors
